Experimental data from the SangsterLogP compilation.

Assay: method code SF-AS, from Lembo, S.; Sasso, V.; Silipo, C.; Vittoria, A. (1983). Physicochemical properties and drug design in a set of analgesics. Farmaco [Sci], 38(10)750-761.
Conditions: pH 7.4

| Structure (SMILES) | logD |
| --- | --- |
| COc1ccccc1NC(=O)C(Cl)Cl | 2.41 |
| CC(=O)c1ccccc1NC(=O)C(Cl)Cl | 2.65 |
| COc1ccccc1NCC#N | 1.3 |
| COc1ccccc1NCC(C)=O | 1.49 |

Other lines, results leading:

| logD | Structure (SMILES) |
| --- | --- |
| 1.58 | CC(=O)c1ccccc1NCC#N |
| 0.61 | CC(=O)CNc1ccccc1C(N)=O |
| 2.33 | CCCCNc1ccccc1C(N)=O |
| 0.5 | N#CCNc1ccccc1C(N)=O |
| 2.85 | CCCCNc1ccccc1OC |

Assay: not given
Conditions: not given

| Structure (SMILES) | logP |
| --- | --- |
| NC(=O)c1ccccc1NC(=O)C(Cl)Cl | 1.51 |
| COc1ccccc1NCCO | 1.07 |
| COc1ccccc1NC(C)=O | 1.02 |
| CC(=O)Nc1ccccc1C(C)=O | 1.4 |
| COc1ccccc1NCC(N)=O | 0.63 |

Second part, the compound after the results:

| logP | Structure (SMILES) |
| --- | --- |
| 0.31 | CC(=O)Nc1ccccc1C(N)=O |
| 1.87 | CC(C)Nc1ccccc1C(N)=O |
| 1.28 | CC(=O)c1ccccc1NCCO |
